From patent EP0214009A2, “Enaminones as potential prodrugs of primary and secondary amines” (priority 1985, dated 1987) come the findings set out here.

Data set [1] in a line: Chemical hydrolysis in isotonic Sorensen phosphate buffer, followed spectrophotometrically. It counts as physicochemical. The following applies: pH 7.4, 25°C, no enzyme, read-out: apparent half lives for chemical hydrolysis.
The nature of data set [2]: Hydrolysis in the presence of porcine liver esterase (half-lives, Michaelis-Menten parameters from Lineweaver Burk plots). It is filed as in vitro ADME. Conditions: pig; 60 × 10⁻⁴ units/ml porcine liver esterase, initial substrate concentration 16 µM, pH 7.4, 25°C; read-out: apparent half lives in the presence of porcine liver esterase.
A further data set concerns Porcine liver esterase. The data set is described as above. It counts as in vitro ADME.
Data set [3] can be described thus: Hydrolysis in the presence of rat plasma. It counts as in vitro ADME.
Data set [4] is described as follows: Hydrolysis in the presence of human plasma. It counts as in vitro ADME.
A short description of data set [5]: Hydrolysis in the presence of rat liver homogenates. It counts as in vitro ADME.
The nature of data set [6]: Hydrolysis in the presence of rat intestinal homogenates. It is filed as in vitro ADME.
Another data set deals with carbonic anhydrase. Description: Hydrolysis in the presence of carbonic anhydrase. It counts as in vitro ADME.

One may read the Km as the concentration of substrate that gives half-maximal velocity.

Where two headings read alike, the source gives them in different places.

As to `CCOC(=O)C1=C(Nc2ccccc2)CCCC1` [Example 2, Ethyl 2-(N-phenylamino)-l-cyclohexene-l-carboxylate], the half-life in data set [1] turned out to be 18 min. In data set [2], the half-life at 16 µM came out at 10 min. Further, the Km with Porcine liver esterase (average over the three enzyme concentrations, read-out: Average Km) worked out at 7.2 mM; with Porcine liver esterase (enzyme concentration 16.7 (Units/ml x 10^4), read-out: Km ± S.D.), 11.2 ± 0.1 mM; with Porcine liver esterase (enzyme concentration 32.4 (Units/ml x 10^4), read-out: Km ± S.D.), 5.3 ± 0.2 mM; with Porcine liver esterase (enzyme concentration 61.2 (Units/ml x 10^4), read-out: Km ± S.D.), 5.2 ± 0.2 mM. Further, the “Vmax ± S.D.” value in the data set with Porcine liver esterase (enzyme concentration 16.7 (Units/ml x 10^4)) is 45.5 ± 3 mM/h; in the data set on Porcine liver esterase (enzyme concentration 32.4 (Units/ml x 10^4)), 56.8 ± 8 mM/h; with Porcine liver esterase (enzyme concentration 61.2 (Units/ml x 10^4)) it was 95.2 ± 10 mM/h. Further, the “Catalysis of the hydrolysis” value (in data set [3]; in data set [4]; in data set [5]; in data set [6]; with carbonic anhydrase) was “not observed” throughout.
